The values below come from patent US8017554B2, “3-amino-1,2-benzisothiazole compounds for combating animal pest” (BASF SE, priority 2006, dated 2011).

Each structure is given as a SMILES string.

For orientation: melting point means the temperature of the solid-liquid transition.

`CCN1C(=N)c2c(OC)cccc2S1(=O)=O` [Compound example 3, 2-Ethyl-4-methoxy-1,1-dioxo-1,2-dihydro-1λ*6*-benzo[d]isothiazol-3-ylideneamine] yielded a melting point of 111 to 114 °C.
